According to patent US20260151378A1, “SALT AND CRYSTAL FORM OF HETEROCYCLIC DERIVATIVE INHIBITOR, AND PREPARATION METHOD THEREFOR AND USE THEREOF” (SHANGHAI HANSOH BIOMEDICAL CO., LTD., priority 2022, published 2026):

Columns and labels:
[1] = Polymorphism study: slurrying of salt crystalline forms in solvents; assay type: physicochemical; conditions: 7 days
[2] = Hygroscopicity determination; assay type: physicochemical; conditions: for hygroscopicity / weight gain after moisture absorption: RH 80%; for crystalline form transformation (XRPD pattern): after 1 cycle of moisture absorption and desorption, 0-95% relative humidity
Description: The crystalline forms of the salt of the compound were placed in saturated water vapor at different relative humidities to reach a dynamic equilibrium between the crystalline forms of the salt of the compound and the water vapor, and the weight gain percentage after moisture absorption after equilibrium was calculated.

[3] = Solid stability experiment; assay type: physicochemical
Description: About 1 mg of crystalline forms of different salts were taken and investigated at a high temperature of 60° C., a high humidity of RH=92.5%, and a high temperature and high humidity of 50° C. and 75% RH for 7 and 14 days. The changes of related substances were calculated for the crystalline forms of the salts by a chromatographic peak area normalization method.

[4] = Solubility experiment in different vehicles; assay type: physicochemical; conditions: 37° C., 2 hours
[5] = PK study of crystalline forms of different salts in rats; assay type: in vivo; conditions: SD rats, gavage, 0.5% HPMC K4M
[6] = tested on: human colorectal cancer cell strain DLD-1 BRCA2−/−; experiment: In vivo pharmacodynamics in DLD-1 BRCA2−/− subcutaneous graft tumor model; parameters: species or system BALB/c nude mice; conditions: DLD-1 BRCA2−/− nude mice, oral, once/day, 28 days
Description: • a. […] The cells were passaged every three days, and after passage, the cells were placed in a CO2 incubator to continue the culture. This process was repeated until the cell number meets the needs of in vivo efficacy. • c. The cultured cells were collected, counted using a full-automatic cell counter, resuspended with PBS according to the counting results, and prepared into a cell suspension (at a density of 5×10^7/mL), which was then placed in an ice box for use. • a. Nude mouse was marked with a disposable universal ear tag for mice and rats before inoculation. • b. At the time of inoculation, the cell suspension was mixed well, 0.1-1 mL of cell suspension was taken with a 1 mL syringe, and after removing air bubbles, the syringe was placed on an ice bag until use. • c. The nude mouse was secured with the left hand. […] The nude mice were inoculated successively (inoculation with 0.1 mL of cell suspension per mouse). • a. […] According to the weight of tumor-bearing mice and the size of the tumor, the mice were grouped by random grouping. • c. […] Tumors were measured and weighed twice a week after starting administration of test drugs. • e. […] The data was processed with software such as Excel.

[7] = tested on: BRCA2 Knockout DLD-1 cells; experiment: Inhibition of proliferation of BRCA2 Knockout DLD-1 cells (CellTiter-Glo); assay type: cell-based; conditions: Homo sapiens, about 144 hours
Description: When using RPMI1640 medium containing 10% FBS to culture BRCA2 Knockout DLD-1 cells to an appropriate cell density, the cells were collected and adjusted with complete medium to an appropriate cell concentration, the cell suspension was spread in a 96-well plate, with 90 μL per well, and the plate was placed in a 37° C., 5% CO2 incubator for overnight adherence. Compound solutions with different concentrations were prepared with DMSO and the culture medium, and a vehicle control was prepared. The compound solutions were added to the 96-well plate, with 10 μL per well, and the plate was placed in a 37° C., 5% CO2 incubator for continued culturing for about 144 hours. CellTiter-Glo solution was added and uniformly mixed by shaking. After incubation for 10-30 minutes in the dark, reading was carried out with Synergy H1 or Envision microplate reader.
The inhibition rate was calculated from the luminescence signal value, and the concentration and inhibition rate were subjected to non-linear regression curve fitting by using Graphpad Prism software to obtain an IC50 value. The inhibitory effects of the compounds of some examples of the present disclosure on the proliferation activity of BRCA2 Knockout DLD-1 cells were as shown in the following table: […]

[8] = FaSSGF (simulated gastric fluid, fasted)
[9] = FaSSIF (simulated intestinal fluid, fasted)
[10] = FeSSIF (simulated intestinal fluid, fed)

## 1′-((7-ethyl-6-carbonyl-5,6-dihydro-1,5-diazanaphth-3-yl)methyl)-N-methyl-1′,2′,3′,6′-tetrahydro-[3,4′-bipyridinyl]-6-carboxamide [p-toluenesulfonate dihydrate crystalline Form A]
[1]; 1,4-Dioxane, 40° C.
  Slurrying result: Still as hydrate crystalline
[1]; 2-Butanone, 40° C.
  Slurrying result: Still as hydrate crystalline
[1]; 2-Methyltetrahydrofuran, 40° C.
  Slurrying result: Still as hydrate crystalline
[1]; Acetone, 40° C.
  Slurrying result: p-Toluenesulfonate crystalline
[1]; Acetonitrile, 40° C.
  Slurrying result: p-Toluenesulfonate crystalline
[1]; Dichloromethane, 40° C.
  Slurrying result: p-Toluenesulfonate crystalline
[1]; Ethanol, 40° C.
  Slurrying result: p-Toluenesulfonate crystalline
[1]; Ethyl acetate, 40° C.
  Slurrying result: Still as hydrate crystalline
[1]; Ethyl formate, 40° C.
  Slurrying result: p-Toluenesulfonate crystalline
[1]; Isopropanol, 40° C.
  Slurrying result: Still as hydrate crystalline
[1]; Methyl tert-butyl ether, 40° C.
  Slurrying result: Still as hydrate crystalline
[1]; Tetrahydrofuran, 40° C.
  Slurrying result: Still as hydrate crystalline
[1]; Toluene, 40° C.
  Slurrying result: Still as hydrate crystalline
[1]; Trichloromethane, 40° C.
  Slurrying result: p-Toluenesulfonate crystalline
[1]; methanol, 40° C.
  Slurrying result: p-Toluenesulfonate crystalline
[2]
  hygroscopicity: weak hygroscopicity
  weight gain after moisture absorption: 1.906%
  crystalline form transformation (XRPD pattern): no crystalline form transformation occurred
[3]; 50° C., 75% RH, 7 days
  Stability result (total impurity increase %): <0.03%
[3]; 50° C., 75% RH, 14 days
  Stability result (total impurity increase %): <0.03%
[3]; 60° C., 7 days
  Stability result (total impurity increase %): <0.03%
[3]; 60° C., 14 days
  Stability result (total impurity increase %): <0.03%
[3]; 92.5% RH, 7 days
  Stability result (total impurity increase %): 0.08%
[3]; 92.5% RH, 14 days
  Stability result (total impurity increase %): <0.03%
[4]; [8]
  solubility: >437 µg/mL
[4]; [9]
  solubility: 147 µg/mL
[4]; [10]
  solubility: >340 µg/mL
[4]; Water
  solubility: 308 µg/mL
[5]; 5 mpk
  AUC0-t: 145.036 µg·h/mL
  AUC0-∞: 146.622 µg·h/mL
  Cmax: 17433 ng/mL
  t1/2: 3.8 h
[5]; 5 mpk, 5 mg/kg
  F %: 92%
  MRT0-∞: 5.4 h
  tmax: 1.0 h
[5]; 20 mpk
  AUC0-t: 558.44 µg·h/mL
  AUC0-∞: 587.652 µg·h/mL
  Cmax: 53400 ng/mL
  F %: 93%
  MRT0-∞: 7.5 h
  t1/2: 5.7 h
  tmax: 4.0 h

## 1′-((7-ethyl-6-carbonyl-5,6-dihydro-1,5-diazanaphth-3-yl)methyl)-N-methyl-1′,2′,3′,6′-tetrahydro-[3,4′-bipyridinyl]-6-carboxamide [sulfate crystalline Form A]
[1]; 1,4-Dioxane, 50° C.
  Slurrying result: Crystalline Form A
[1]; 2-Me—THF, 50° C.
  Slurrying result: Crystalline Form A
[1]; ACN, 50° C.
  Slurrying result: Crystalline Form A
[1]; Acetone, 50° C.
  Slurrying result: Crystalline Form A
[1]; EA, 50° C.
  Slurrying result: Crystalline Form A
[1]; EtOH, 50° C.
  Slurrying result: Crystalline Form A
[1]; MeOH, 50° C.
  Slurrying result: Crystalline Form A
[1]; THF, 50° C.
  Slurrying result: Crystalline Form A
[1]; Toluene, 50° C.
  Slurrying result: Crystalline Form A
[2]
  hygroscopicity: weak hygroscopicity
  weight gain after moisture absorption: 1.785%
  crystalline form transformation (XRPD pattern): no crystalline form transformation occurred
[3]; 50° C., 75% RH, 7 days
  Stability result (total impurity increase %): 0.12%
[3]; 50° C., 75% RH, 14 days
  Stability result (total impurity increase %): 0.56%
[3]; 60° C., 7 days
  Stability result (total impurity increase %): 0.76%
[3]; 60° C., 14 days
  Stability result (total impurity increase %): 0.66%
[3]; 92.5% RH, 7 days
  Stability result (total impurity increase %): 0.17%
[3]; 92.5% RH, 14 days
  Stability result (total impurity increase %): 0.06%
[4]; [8]
  solubility: >466 µg/mL
[4]; [9]
  solubility: 133 µg/mL
[4]; [10]
  solubility: >347 µg/mL
[4]; Water
  solubility: 696 µg/mL
[5]; 5 mpk, 5 mg/kg
  AUC0-t: 118.078 µg·h/mL
  AUC0-∞: 119.241 µg·h/mL
  Cmax: 14467 ng/mL
  F %: 75%
  MRT0-∞: 5.3 h
  t1/2: 3.7 h
  tmax: 2.0 h

## CCc1cc2ncc(CN3CC=C(c4ccc(C(=O)NC5CC5)nc4)CC3)cc2[nH]c1=O [Example 2]
[6]
  animal weight: without significant reduction of the animal weight

## CCc1cc2ncc(CN3CC=C(c4ccc(C(=O)NOC)nc4)CC3)cc2[nH]c1=O [Example 3]
[7]
  IC50: 3.2 nM

## CCc1cc2ncc(CN3CC=C(c4ccc(C(=O)NC)nc4Cl)CC3)cc2[nH]c1=O [Example 13]
[7]
  IC50: 1 nM

## CCc1cc2ncc(CN3CC=C(c4ccc(C(=O)NCC#N)nc4)CC3)cc2[nH]c1=O [Example 15]
[7]
  IC50: 2.4 nM

## CCc1cc2ncc(CN3CC=C(c4ccc(C(=O)NC5(C#N)CC5)nc4)CC3)cc2[nH]c1=O [Example 16]
[7]
  IC50: 2.7 nM

## CCc1cc2ncc(CN3CCC(c4ccc(C(=O)NC)nc4)=C(F)C3)cc2[nH]c1=O [Example 19]
[7]
  IC50: 1.5 nM

## CCc1cc2ncc(CN3CC=C(c4ccc(C(=O)NCC(F)(F)F)nc4)CC3)cc2[nH]c1=O [Example 20]
[7]
  IC50: 1.4 nM

## CNC(=O)c1ccc(C2=CCN(Cc3cnc4cc(C(F)(F)F)c(=O)[nH]c4c3)CC2)cn1 [Example 21]
[7]
  IC50: 5.1 nM
